Here are results for 43 compounds from US20250099448A1, “HETEROCYCLIC COMPOUNDS” (Hoffmann-La Roche Inc., priority 2022, published 2025).

The target in the test is T1, MAGL protein (Homo sapiens, UniProt Q99685).
T1 sequence (Q99685 1-303): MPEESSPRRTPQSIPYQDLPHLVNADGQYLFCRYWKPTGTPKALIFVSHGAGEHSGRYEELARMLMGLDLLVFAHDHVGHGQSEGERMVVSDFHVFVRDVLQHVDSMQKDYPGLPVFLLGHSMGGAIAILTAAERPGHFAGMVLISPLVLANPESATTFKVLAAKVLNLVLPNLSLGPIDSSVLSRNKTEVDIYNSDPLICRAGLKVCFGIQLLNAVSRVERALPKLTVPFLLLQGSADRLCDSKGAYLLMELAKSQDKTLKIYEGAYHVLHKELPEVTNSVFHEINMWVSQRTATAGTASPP
In words: 2-AG assay: MAGL inhibitory activity by hydrolysis of 2-arachidonoylglycerol to arachidonic acid, followed by mass spectrometry. The settings on record: 8 μM 2-arachidonoylglycerol, 15 min preincubation, 30 min reaction at RT, RapidFire MS readout. In kind it is biochemical. The essentials: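 MAGL was preincubated 15 min at RT with compound (12.5 to […], 3-fold steps) in 50 mM TRIS, 1 mM EDTA, 0.01% Tween-20, 2.5% DMSO. The reaction ran 30 min at RT with 8 μM 2-AG. Arachidonic acid was quantified by RapidFire SPE-MS/MS against a d8-arachidonic acid internal standard.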

Regarding `O=C(N1CC(C23CC(Nc4cnc(C(F)(F)F)cn4)(C2)C3)C1)N1CC2(CC(c3nc(C4(O)CC4)n[nH]3)C2)C1` [compound 593], the IC50 was found to be 1.36 nM.
In the case of `O=C(N1CC2(CC(c3nc(C4CC4)n[nH]3)C2)C1)N1CC2(CC[C@H](Cc3cccc(S(=O)(=O)C(F)(F)F)c3)C2)C1` [compound 594], it took 0.02 nM to reach half-maximal inhibition (IC50).
The result for `Cc1cc(C23CC(C4CN(C(=O)N5CC6(CC(c7nc(C8CC8)n[nH]7)C6)C5)C4)(C2)C3)[nH]n1` [compound 595] reads 3.63 nM; that for `O=C(N1CC2(CC(c3nc(C4CC(F)(F)C4)n[nH]3)C2)C1)N1CC2(CN(Cc3ncc(C(F)(F)F)s3)C2)C1` [compound 596], 357 nM.
The figure for `O=C(N1CC2(CC(c3nc(C4CC4)n[nH]3)C2)C1)N1CC2(CN(Cc3ccnn3CC(F)F)C2)C1` [compound 597] is 135 nM; for `O=C(N1CC2(CC(c3nc(C4(F)CC4)n[nH]3)C2)C1)N1CC2(CN(Cc3ncc(C(F)(F)F)s3)C2)C1` [compound 598] it is 1.89 nM.
In turn, `O=C(N1CC2(CC(c3nc(C4(O)CC4)n[nH]3)C2)C1)N1CC2(CC[C@@H](Cc3ccc(S(=O)(=O)C(F)(F)F)cc3)C2)C1` [compound 599] came in with an IC50 of 0.84 nM.
`O=C(N1CC2(CC(c3nc(C4CC4)n[nH]3)C2)C1)N1CC2(CN(Cc3ccn(C(F)(F)F)n3)C2)C1` [compound 601] showed an IC50 of 26.4 nM.
`Cn1nc(CC2CC3(C2)CN(C(=O)N2CC4(CC(c5nc(C6(F)CC6)n[nH]5)C4)C2)C3)cc1C(F)(F)F` [compound 602] yielded an IC50 of 0.11 nM.
The result for `N=S(=O)(c1ccc(CC2CC3(C2)CN(C(=O)N2CC4(CC(c5nc(C6CC(F)(F)C6)n[nH]5)C4)C2)C3)cc1)C(F)(F)F` (stereo not shown) [compound 603] reads 34.4 nM.
The result for `O=C(N1CC2(CC(Cc3cccc(S(=O)(=O)C(F)(F)F)c3)C2)C1)N1CC2(CC(c3nc(C4CC(F)(F)C4)n[nH]3)C2)C1` [compound 604] reads 6.89 nM; that for `N#Cc1ccc(OC2CC3(C2)CN(C(=O)N2CC4(CC(c5nc(C6CC6)n[nH]5)C4)C2)C3)cc1C(F)(F)F` [compound 605], 0.86 nM.
In turn, `N#Cc1cc(CC2CC3(C2)CN(C(=O)N2CC4(CC(c5nnc(C6(O)CC6)[nH]5)C4)C2)C3)cnc1C(F)(F)F` [compound 606] came in with an IC50 of 5.17 nM.
With `O=C(N1CC2(CC(Cc3cn[nH]c3C(F)(F)F)C2)C1)N1CC2(CC(c3nc(C4CC4)n[nH]3)C2)C1` [compound 607], the half-maximal inhibitory concentration (IC50) came to 0.08 nM.
As for `O=C(N1CC2(CC(c3nc(C4CC4)n[nH]3)C2)C1)N1CC2(CN(Cc3cc(C(F)(F)F)on3)C2)C1` [compound 609], the concentration for half-maximal inhibition (IC50) is 8.32 nM.
The figure for `O=C(N1CC2(CC(Cc3cc(C(F)F)[nH]n3)C2)C1)N1CC2(CC(c3nc(C4CC4)n[nH]3)C2)C1` [compound 610] is 0.4 nM; for `N#Cc1cc(C(F)(F)F)ncc1C[C@H]1CCC2(C1)CN(C(=O)N1CC3(CC(c4nnc(C5CC5)[nH]4)C3)C1)C2` [compound 611] it is 0.68 nM.
The result for `O=C(N1CC2(CC(c3nc(C4CC4)n[nH]3)C2)C1)N1CC2(CC[C@@H](Cc3ccc(S(=O)(=O)C(F)(F)F)cc3)C2)C1` [compound 612] reads 0.13 nM.
Regarding `O=C(N1CC2(CC(Cc3ncc(Cl)cc3F)C2)C1)N1CC2(CC(c3nc(C4CC4)n[nH]3)C2)C1` [compound 613], the IC50 was found to be 0.91 nM.
The result for `O=C(N1CC2(CC(c3nc(C4CC4)n[nH]3)C2)C1)N1CC2(CN(Cc3cc(C4CCC4)[nH]n3)C2)C1` [compound 614] reads 5.49 nM.
The figure for `O=C(N1CC2(CC(Cc3cc(C(F)F)[nH]n3)C2)C1)N1CC2(CC(c3nc(C4(O)CC4)n[nH]3)C2)C1` [compound 615] is 1.65 nM.
For `O=C(N1CC2(CC(Cc3ccc(S(=O)(=O)C(F)(F)F)cn3)C2)C1)N1CC2(CC(c3nc(C4(O)CC4)n[nH]3)C2)C1` [compound 616], inhibition was half-maximal at 1.01 nM (IC50).
`O=C(N1CC2(CC(Cc3ncc(F)cc3Cl)C2)C1)N1CC2(CC(c3nc(C4CC(F)(F)C4)n[nH]3)C2)C1` [compound 617]: half-maximal inhibition (IC50) required 8.16 nM.
Regarding `O=C(N1CC2(CC(c3nc(C4CC4)n[nH]3)C2)C1)N1CC2(CN(Cc3ccn(CC(F)(F)F)n3)C2)C1` [compound 618], the 50% inhibitory concentration (IC50) was determined as 95.1 nM.
The figure for `O=C(N1CC2(CC(Oc3ccc(Cl)cn3)C2)C1)N1CC2(CC(c3nc(C4CC4)n[nH]3)C2)C1` [compound 619] is 0.79 nM.
`O=C(N1CC2(CC(Cc3ncc(C(F)(F)F)cc3F)C2)C1)N1CC2(CC(c3ncn[nH]3)C2)C1` [compound 620]: the concentration for half-maximal inhibition (IC50) is 187 nM.
The figure for `O=C(N1CC2(CC(Cn3cc(C(F)(F)F)ccc3=O)C2)C1)N1CC2(CC(c3nc(C4(O)CC4)n[nH]3)C2)C1` [compound 621] is 3.62 nM; for `O=C(N1CC2(CC(Oc3ncc(F)cc3Cl)C2)C1)N1CC2(CC(c3nc(C4CC4)n[nH]3)C2)C1` [compound 622] it is 0.63 nM.
`Cn1nc(C2CC2)cc1CN1CC2(C1)CN(C(=O)N1CC3(CC(c4nc(C5CC5)n[nH]4)C3)C1)C2` [compound 623] had a 50% inhibitory concentration (IC50) of 12.6 nM.
As for `O=C(N1CC2(CC(c3nc(C4CC4)n[nH]3)C2)C1)N1CC2(CN(Cc3ncc(C(F)F)s3)C2)C1` [compound 624], the half-maximal inhibitory concentration (IC50) turned out to be 8.21 nM.
Regarding `O=C(N1CC2(CC(c3nc(C4CC4)n[nH]3)C2)C1)N1CC2(CN(Cc3cc(C(F)(F)F)[nH]n3)C2)C1` [compound 625], the IC50 was 8.75 nM.
The figure for `O=C(N1CC2(CC(Cc3ccc4ncnn4c3)C2)C1)N1CC2(CC(c3nc(C4(O)CC4)n[nH]3)C2)C1` [compound 626] is 56.4 nM; for `O=C(N1CC2(CC(Cc3cccc(S(=O)(=O)C(F)(F)F)c3)C2)C1)N1CC2(CC(c3nc(C4(F)CC4)n[nH]3)C2)C1` [compound 627] it is 0.05 nM; for `O=C(N1CC2(CC(c3nc(C4CC4)n[nH]3)C2)C1)N1CC2(CN(Cc3cnn(C(F)F)c3)C2)C1` [compound 628] it is 149 nM.
Regarding `N#Cc1ccc(CC2CC3(C2)CN(C(=O)N2CC4(CC(c5nc(C6(O)CC6)n[nH]5)C4)C2)C3)cc1C(F)(F)F` [compound 629], the IC50 was 1.45 nM.
In the case of `O=C(N1CC2(CC(c3cnc(C(F)(F)F)nc3)C2)C1)N1CC2(CC(c3nnc(C4CC4)[nH]3)C2)C1` [compound 630], it took 1.36 nM to reach half-maximal inhibition (IC50).
The figure for `O=C(N1CC2(CC(Oc3cnn(CC(F)(F)F)c3)C2)C1)N1CC2(CC(c3nc(C4CC4)n[nH]3)C2)C1` [compound 631] is 10.7 nM; for `CS(=O)(=O)c1cc(C(F)(F)F)ccc1CC1CC2(C1)CN(C(=O)N1CC3(CC(c4ncn[nH]4)C3)C1)C2` [compound 633] it is 1310 nM; for `O=C(N1CC2(CC(Cn3cc(C(F)(F)F)cn3)C2)C1)N1CC2(CC(c3nc(C4COC4)n[nH]3)C2)C1` [compound 634] it is 104 nM.
The result for `O=C(N1CC(c2ccc(C3(C(F)(F)F)CC3)cc2)C1)N1CC2(CC(c3ncn[nH]3)C2)C1` [compound 635] reads 950 nM; that for `O=C(N1CC2(CC(c3nc(C4CC4)n[nH]3)C2)C1)N1CC2(CN(Cc3nc(C4CC4)ns3)C2)C1` [compound 637], 7.44 nM.
The result for `N=S(=O)(c1ccc(C2CN(C(=O)N3CC4(CC(c5nc(C6CC6)n[nH]5)C4)C3)C2)cc1)C(F)(F)F` (stereo not shown) [compound 638] reads 0.52 nM; that for `N=S(=O)(c1cccc(CC2CC3(C2)CN(C(=O)N2CC4(CC(c5nc(C6(O)CC6)n[nH]5)C4)C2)C3)c1)C(F)(F)F` (stereo not shown) [compound 639], 0.21 nM.
